The values below come from article PMC4109680, “Identification and Preclinical Pharmacology of the γ-Secretase Modulator BMS-869780” (International Journal of Alzheimer's Disease, 2014).

Data set [1] concerns APP-CTF (H4-APPsw). Description: Western blot of APP-CTFα and APP-CTFβ in H4-APPsw cell lysates. The class given is cell-based, human. The note with it: overnight; for increase in APP-CTFα: BMS-869780 100-3000 nM averaged across doses, BMS-299897 30-300 nM; for APP-CTFβ levels: high concentrations. How it is done:
For western blotting of APP-CTF in cell lysates, H4-APPsw cell cultures in T-75 flasks were rinsed with DPBS, harvested, isolated by centrifugation, and stored at −80°C until needed. Cells were suspended in SDS sample buffer (20,000 cells/μL), boiled for 10 min, and centrifuged 3000 ×g for 5 min. Total protein content was determined using an assay kit (EZQ, Invitrogen cat number R33200). Proteins were separated by electrophoresis on Bis-Tris 16% polyacrylamide gels and transferred to nitrocellulose filters. APP-CTFβ was detected using 26D6-HRP, and APP-CTFα was detected using ct695 polyclonal (Invitrogen, cat number 51-2700) and secondary goat anti-rabbit horseradish peroxidase conjugate (Zymed, catalog number 62-6120). Chemiluminescence images were captured and quantified using an imaging station (Fuji model number LAS-3000). The ct695 western blots also show APP-CTFβ, which migrates as a fainter band above APP-CTFα under these conditions. To confirm the consistency of sample loading, the APP-CTF western blots were reprobed for glyceraldehyde-3-phosphate dehydrogenase (GAPDH) using monoclonal 1D4 (Enzo Life Sciences, cat number CSA-335).
Figure 4 BMS-869780 had minimal effect on APP-CTF accumulation in vitro. H4-APPsw cell cultures were treated overnight with the indicated concentrations of BMS-869780, BMS-299897 or vehicle (0.1% DMSO). (a) Cells were harvested and analyzed by western blotting for APP-CTFα, APP-CTFβ, and GAPDH. Lane 1; culture treated with vehicle 0.1% DMSO. Lanes 2–5; cultures treated with BMS-869780 at 100 nM, 300 nM, 1000 nM, or 3000 nM, respectively. Lanes 6–8; cultures treated with BMS-299897 at 30 nM, 100 nM, or 300 nM, respectively. (b) Levels of Aβ1-42 (red; left Y-axis), Aβ1-40 (green; right Y-axis), and Aβ1-x (grey; right Y-axis) were quantified.

The subject of data set [2] is mNotch1Δ1865. Description: Western blot of NICD and mNotch1Δ1865 in transfected HeLa cell cultures. It is filed as cell-based. How it is done:
(§1) Inhibition of Notch signaling in cultured cells using a mouse-derived truncated Notch1 transgene, mNotch-ΔE [67], has been described in detail previously. Western blots for mNotchΔ1865 and NICD using 9E10 anti-c-myc monoclonal were carried out as previously described.
(§2) The effect of BMS-869780 on Notch processing was evaluated using transcriptional reporter assays and western blotting of NICD levels. HeLa cell cultures were transfected with mNotch1ΔE and CBF1-luciferase reporter constructs and treated with BMS-869780. In most replicates of this experiment, inhibition of luciferase reporter occurred with IC50 > 10 μM. […] To further evaluate the effect of BMS-869780 on Notch processing, western blots of cell cultures were carried out using mNotch1Δ1865, a truncated version of mNotch1ΔE that facilitates separation of NICD product from mNotch1 substrate on western blots. HeLa cell cultures were transfected with mNotch1Δ1865 and treated overnight with compounds before western blotting. […] Furthermore, the GSIs caused an increased level of mNotch1Δ1865 substrate, most likely due to inhibition of its turnover by γ-secretase, as previously noted by Blat et al..
(§3) (b) HeLa cell cultures were transfected with mNotchΔ1865, treated with compounds overnight, and cell extracts were evaluated by western blot using anti-c-myc-HRP conjugate. Lanes 1 and 9: DMSO (0.1%) vehicle. Lane 2: BMS-299897 at 1 μM. Lane 3: BMS-433796 at 0.3 μM. Lanes 4–8: BMS-869780 at 0.1, 0.3, 1, 3, and 10 μM, respectively.
On the technique in general: In western blotting, separated proteins are transferred to a membrane and probed.

Data set [3] relates to mNotch1ΔE. Description: Notch signaling CBF1-luciferase reporter assay in HeLa cells transfected with mNotch1ΔE. The note with it: for IC50: HeLa, treated overnight; for mNotch1ΔE/Aβ1-42: ratio of IC50 values. It is filed as cell-based. How it is done:
as §1, §2, §3
On the technique in general: In a reporter assay the amount or activity of a reporter protein is the signal.

The test system of data set [4] is Aβ1-x (H4-APPsw). Description: Aβ1-42, Aβ1-40 and Aβ1-x ELISA in H4-APPsw cultures at high concentrations. It is filed as cell-based, human. The conditions noted are these: overnight. How it is done: IC50 determinations for Aβ1-42 and Aβ1-40 in H4-APPsw cultures in 384-well format were determined using homogeneous time-resolved fluorescence immunoassays as previously described. The principle of these assays is illustrated in Figures 1(c) and 1(d). In other experiments using H4-APPsw cultures, Aβ was quantified by ELISA; for Aβ1-42 the combination of monoclonal antibodies was 26D6 and 565-HRP; for Aβ1-40 it was TSD and 26D6-HRP, and for Aβ1-x it was 4G8 and 26D6-HRP. In some experiments a novel 4-plex Aβ electrochemiluminescence immunoassay was used (Mesoscale Discovery catalog number N45ZA-1). […] For Aβ in transiently transfected PS1/PS2 dKO fibroblasts, Aβ1-42 was quantified using an ELISA kit (WACO), and Aβ1-40 was quantified by ELISA as described above for H4-APPsw cultures. […] For the rat and mouse experiments illustrated in Figures 7 and 8, brain samples were prepared by solid phase extraction, and endogenous rat brain Aβ1-42 and Aβ1-40 were quantified by ELISA as previously described for wild type mice. […] For brain extracts made in 0.2% diethylamine, Aβ1-42, Aβ1-40, Aβ1-38, and Aβ1-37 concentrations in brain and cell culture samples were determined by fitting the results of immunoassays against calibration curves derived from a range of dilutions of the corresponding synthetic peptides on each assay plate using a quadratic curve fit (Graphpad Prizm 5.0). […]
On the technique in general: An ELISA detects its analyte on a solid surface through an enzyme-linked reagent.

The structures appear in SMILES notation.

Take `C[C@H](c1ccc(F)cc1CCCC(=O)O)N(c1cc(F)ccc1F)S(=O)(=O)c1ccc(Cl)cc1` [BMS-299897, reference compound]: in data set [1], the “increase in APP-CTFα” value is 8 fold and the APP-CTFβ levels result was “not affected”. Besides, the NICD levels result in data set [2] (BMS-299897 at 1 μM, BMS-433796 at 0.3 μM) is “greatly reduced NICD”. Moreover, the “Notch/Aβ1-42 IC50 ratios” value in data set [3] (GSIs) came out at 723. In addition, in data set [3], the half-maximal inhibitory concentration (IC50) – broadly, the concentration at which inhibition is half-maximal – came to 340 nM and the mNotch1ΔE/Aβ1-42 was 723x. In addition, the “overall levels of Aβ1-x” value in data set [4] is “dramatically reduced all Aβ1-x peptides”.
On to `COc1cc(Nc2nc3n(n2)CCCC[C@H]3c2ccc(F)cc2)ccc1-n1cnc(Cl)c1` [BMS-869780], for which, in data set [1], the “increase in APP-CTFα” value was found to be 1.4 fold and the APP-CTFβ levels result is given as “not affected”. For the same compound, the mNotch1Δ1865 substrate levels result in data set [2] (10 μM) is listed as “did not increase mNotch1Δ1865 levels”. The cell observation result in data set [2] (10 μM, HeLa cultures) is “detached and dead cells”. Further, the NICD levels result in data set [2] (concentrations up to 3 μM) was “no effect on NICD levels”. Moreover, in data set [3], the half-inhibitory concentration (IC50) was above 10000 nM and the mNotch1ΔE/Aβ1-42 was above 1785x. For the same compound, the “ratio of Notch to Aβ1-42 IC50s” value in data set [3] (based on IC50 >10 μM for Notch) is given as above 1785 fold. The “overall levels of Aβ1-x” value in data set [4] is “without any decrease in the overall levels of Aβ1-x”.
